Source: publication PMC8175350, “Drug repurposing screens identify chemical entities for the development of COVID-19 interventions” (Nature Communications, 2021)
Counter-ions that a name gives are not always drawn. Like-named read-outs stand apart in the source and are kept apart here.

Experiments:
[1] = Uninfected Calu-3 48 h Cell-Titer Glo cytotoxicity counter screen; settings: human, uninfected Calu-3 cells, Calu-3 uninfected cytotoxicity CC50 GeoMean
Calu-3 cells [2] = assay: as above; settings: human, uninfected Calu-3 cells, 48 h
SARS-CoV-2 [3] = assay: microbe, parasite or virus in culture; format: cell-based; settings: for Emax: Severe acute respiratory syndrome coronavirus 2, HeLa-ACE2, 10 h, read-out: HeLa-ACE2 TOA CoV-2 Sinf Average; for EC50: read-out: HeLa-ACE2 TOA CoV-2 EC50 GeoMean
HeLa-ACE2 cells [4] = assay: cells; settings: Homo sapiens; for Emax: HeLa-ACE2, 24 h, read-out: HeLa-ACE2 cell count Sinf Average; for EC50: HeLa-ACE2, read-out: HeLa-ACE2 cell count EC50 GeoMean
SARS-CoV-2 [5] = assay: microbe, parasite or virus in culture; format: cell-based; settings: for Emax: Severe acute respiratory syndrome coronavirus 2, HeLa-ACE2, 24 h, read-out: HeLa-ACE2 CoV-2 Sinf Average; for EC50: read-out: HeLa-ACE2 CoV-2 EC50 GeoMean; for HeLa-ACE2 SI: selectivity index, uninfected HeLa-ACE2 CC50 / SARS-CoV-2 EC50
HeLa-ACE2 cells [6] = assay: Total cell count in the HeLa-ACE2 TOA (time of addition) assay; format: cell-based, human; settings: for EC50: Homo sapiens, HeLa-ACE2, read-out: HeLa-ACE2 TOA cell count EC50 GeoMean
[7] = HEK293T 72 h CellTiter-Glo cytotoxicity; settings: human, HEK293T cells
HEK293T [8] = assay: HEK293T 72 h CellTiter-Glo cytotoxicity; settings: 72 h
[9] = Uninfected HeLa-ACE2 24 h live/dead cytotoxicity counter screen; format: cell-based, human; settings: human, uninfected HeLa-ACE2 cells; read-out: HeLa-ACE2 uninfected cytotoxicity CC50 GeoMean
HeLa-ACE2 cells [10] = assay: as above; format: cell-based, human; settings: human, uninfected HeLa-ACE2 cells, 24 h
HepG2 [11] = assay: HepG2 72 h CellTiter-Glo cytotoxicity; settings: 72 h
[12] = HepG2 72 h CellTiter-Glo cytotoxicity; settings: human, HepG2 cells
Calu-3 cells [13] = assay: cells; settings: Homo sapiens; for EC50: Calu-3, read-out: Calu-3 cell count EC50 GeoMean; for Emax: Calu-3, 48 h, read-out: Calu-3 cell count Sinf Average
SARS-CoV-2 [14] = assay: microbe, parasite or virus in culture; format: cell-based; settings: for Emax: Severe acute respiratory syndrome coronavirus 2, Calu-3, 48 h, read-out: Calu-3 CoV-2 Sinf Average; for EC50: read-out: Calu-3 CoV-2 EC50 GeoMean; for Calu-3 SI: selectivity index, uninfected Calu-3 CC50 / SARS-CoV-2 EC50
Calu-3 cells [15] = settings: for Calu-3 uninfected cytotoxicity Sinf Average: human, 48 h
SARS-CoV-2 [16] = format: cell-based; settings: combination with remdesivir
in vitro = settings: human, Calu-3 uninfected cytotoxicity CC50 GeoMean
HEK293T [17] = settings: human, 72 h
HepG2 [18] = settings: human, 72 h
[19] = Severe acute respiratory syndrome coronavirus 2, HeLa-ACE2
[20] = Severe acute respiratory syndrome coronavirus 2, HeLa-ACE2, detail column
[21] = Severe acute respiratory syndrome coronavirus 2, Calu-3, detail column
[22] = Severe acute respiratory syndrome coronavirus 2, Calu-3

Compound	TOA:HeLa-ACE2 EC50 Ratio (SARS-CoV-2 [3])	Emax (SARS-CoV-2 [3]) [%]	EC50 (SARS-CoV-2 [3]; [19]) [µM]	Emax (HeLa-ACE2 cells [4]) [%]	EC50 (HeLa-ACE2 cells [4]) [µM]	Emax (SARS-CoV-2 [5]) [%]	EC50 (SARS-CoV-2 [5]; [20]) [µM]	HeLa-ACE2 SI (SARS-CoV-2 [5])	EC50 (HeLa-ACE2 cells [6]) [µM]	CC50 at 24 h [9] [µM]	HeLa-ACE2 uninfected cytotoxicity Sinf Average (HeLa-ACE2 cells [10]) [%]	EC50 (Calu-3 cells [13]) [µM]	Emax (SARS-CoV-2 [14]) [%]	EC50 (SARS-CoV-2 [14]; [21]) [µM]	Calu-3 SI (SARS-CoV-2 [14])	uninfected Calu-3 CC50 (Calu-3 cells [15])	Calu-3 uninfected cytotoxicity Sinf Average (Calu-3 cells [15]) [%]	CC50 at 48 h (in vitro) [µM]	HEK293T 72-hour cytotoxicty Sinf Average (HEK293T [17]) [%]	HepG2 72-hour cytotoxicity Sinf Average (HepG2 [18]) [%]	also measured
OC(CNCC(O)C1CCc2cc(F)ccc2O1)C1CCc2cc(F)ccc2O1 (stereo not drawn) [Nebivolol HCl]	0.619	98	1.83	100	> 9.12	99	2.96	> 3.75	> 4.56	> 11.1	-103	> 9.98	100	> 8.69	< 1.57	–	–	–	–	–	CC50 at 48 h [1]: 13.6 µM; Calu-3 uninfected cytotoxicity Sinf Average (Calu-3 cells [2]): -100%; HeLa-ACE2 TOA cell count Sinf Average (HeLa-ACE2 cells [6]): 70%; CC50 at 72 h [7]: 5.57 µM; HEK293T 72-hour cytotoxicty Sinf Average (HEK293T [8]): -106%; HepG2 72-hour cytotoxicity Sinf Average (HepG2 [11]): -99%; CC50 at 72 h [12]: 7.62 µM
CCCCC1CCc2cc(O)cc3c(CCN4CCN(c5cc(C)ccn5)CC4)c(C)n1c23 (stereo not drawn) [KC 11404]	0.864	100	2.16	100	> 9.59	100	2.5	> 8.39	> 9.59	> 20.9	-100	> 9.98	100	8.02	1.59	12.778 ×÷ 1.123 (n=3) μM	-100	12.8	-100	-101	HeLa-ACE2 TOA cell count Sinf Average (HeLa-ACE2 cells [6]): 100%; HeLa-ACE2 synergy score with remdesivi (SARS-CoV-2 [16]): -2.817 δ
Nc1nc(Nc2ccc3c(c2)CC[C@@H](N2CCCC2)CC3)nn1-c1cc2c(nn1)-c1ccccc1CCC2 [BGB324]	7.782	100	> 9.35	100	> 9.15	98	1.2	13.05	> 9.59	15.7	-101	6.27	100	6.94	2.74	19.024 ×÷ 1.18 (n=3) μM	-100	19	-102	-105	HeLa-ACE2 synergy score with remdesivi (SARS-CoV-2 [16]): 7.223 δ; Emax (Calu-3 cells [13]): 100%
Cc1c(-c2ccc(O)cc2)n(Cc2ccc(OCCN3CCCCCC3)cc2)c2ccc(O)cc12 [Bazedoxifene acetate]	–	100	> 4.47	100	> 8.59	100	–	–	> 9.59	> 20.7	–	> 9.98	94	–	–	–	–	–	–	–	CC50 at 48 h [1]: 10.6 µM; EC50 (SARS-CoV-2 [5]; [19]): 2.89 µM; CC50 at 72 h [7]: 9.19 µM; HEK293T 72-hour cytotoxicty Sinf Average (HEK293T [8]): -106%; HepG2 72-hour cytotoxicity Sinf Average (HepG2 [11]): -99%; CC50 at 72 h [12]: 3.21 µM; EC50 (SARS-CoV-2 [14]; [22]): > 7.73 µM
CCN(CC)CCCNc1ccnc2cc(Cl)ccc12 [AQ-13]	12.002	100	–	–	> 9.6	101	0.8	32.34	> 9.61	25.9	-100	> 9.98	100	–	–	> 29.255 ×÷ 1.046 (n=4) μM	-100	> 29.3	-100	-100	EC50 (SARS-CoV-2 [3]; [20]): > 9.61 µM; HeLa-ACE2 synergy score with remdesivi (SARS-CoV-2 [16]): -1.765 δ; EC50 (SARS-CoV-2 [14]; [22]): > 9.98 µM
CC(C)Oc1ccc(-c2nc(-c3cccc4c3CC[C@@H]4NCCO)no2)cc1C#N [Ozanimod]	2.748	100	> 7.24	100	> 8.74	101	2.63	> 5.60	> 9.59	> 14.7	-101	> 9.98	97	> 7.74	< 1.72	13.319 ×÷ 1.347 (n=3) μM	-100	13.3	-100	-103	HeLa-ACE2 synergy score with remdesivi (SARS-CoV-2 [16]): -4.622 δ; Emax (Calu-3 cells [13]): 100%
Cc1cccc(/C=N/Nc2cc(N3CCOCC3)n3nc(-c4ccncc4)cc3n2)c1 [APY0201]	–	100	–	–	> 9.59	96	0.014	> 2853.95	> 9.59	> 39.4	-100	> 9.98	97	> 9.39	–	> 26.965 ×÷ 1.196 (n=6) μM	-100	> 27	-96	-100	EC50 (SARS-CoV-2 [3]; [20]): > 9.59 µM; Emax (Calu-3 cells [13]): 100%
